Assay results reported in US10632064B2, “Topical regional neuro affective therapy with cannabinoid combination products” (Afgin Pharma, LLC, priority 2015, dated 2020).
Values joined by “and” are separate entries in the source; they are usually repeats but may differ in a detail not shown here. Identical values can stand only once. “Also recorded” adds a separate entry of the source.

Columns and labels:
human patients = experiment: Example 5: topical cannabidiol (CBD) formulation on the back of the neck, 40 mg dose, patient cases (Table 1); assay type: in vivo
Protocol: The following patients were treated with a topical cannabidiol (CBD) formulation administered on the back of the neck on human patients at a 40 mg dose, as more specifically described below in Table 1: […]

[1] = system: human patient with episodic severe post-operative neuralgic head pain; experiment: Example 6: topical cannabidiol 40 mg at the BONATH, post-operative neuralgic head pain, EEG; assay type: in vivo
Protocol: The efficacy of a topical cannabidiol formulation was studied in a human patient (s/p resection right clival meningioma) suffering from episodic severe post-operative neuralgic head pain suffering from severe right-sided neuralgic head pain every 15-20 seconds. The patient was treated with cannabidiol 40 mg applied to the BONATH in a topical formulation. There was attenuation of associated focal EEG abnormalities. […] The neuralgic head pain was less severe by about 50% (frequency decreased to every 2-5 minutes).

[2] = system: human patient having a remote head injury, s/p 4 craniotomies and intractable seizures; experiment: Example 7: topical cannabidiol 40 mg at the BONATH, intractable seizures, EEG; assay type: in vivo; settings: cannabidiol 40 mg topical at BONATH
Protocol: The efficacy of a topical cannabidiol formulation was studied in a human patient having a remote head injury, s/p 4 craniotomies and intractable seizures. The patient was treated with cannabidiol 40 mg applied to the BONATH in a topical formulation. There was attenuation of associated focal EEG abnormalities.

[3] = system: patients having seizures, encephalopathy, and/or spasticity; experiment: Example 8: topical CBD at the back of the neck (Table 2); assay type: in vivo, human
Protocol: (§1) In Example 8, 34 patients having seizures, encephalopathy, and/or spasticity were treated with topical CBD at the back of the neck. The treatment comprised a dose of either 15 mg or 30 mg cannabinoid drugs, with the majority being CBD, the source of the CBD being CBD oil commercially available from CannaVest.

[4] = system: patients having headaches and neck pain; experiment: Example 9: topical CBD at the back of the neck (Table 3); assay type: in vivo, human
Protocol: In Example 9, 13 patients having headaches and neck pain were treated with topical CBD at the back of the neck. The treatment comprised a dose of either 15 mg or 30 mg cannabinoid drugs, with the majority being CBD, the source of the CBD being CBD oil commercially available from CannaVest.

[5] = system: patients having back/spine pain, fibromyalgia, and/or extremity pain; experiment: Example 10: topical CBD (Table 4); assay type: in vivo, human
Protocol: as §1, with “10, 16” for “8, 34”, “back/spine pain, fibromyalgia,” for “seizures, encephalopathy,”, “extremity pain” for “spasticity”

[6] = system: patients having Parkinson's disease, tremors, or movement disorders; experiment: Example 11: topical CBD at the back of the neck (Table 5); assay type: in vivo, human
Protocol: as §1, with “11, 6” for “8, 34”, “Parkinson's disease, tremors, or movement disorders” for “seizures, encephalopathy, and/or spasticity”

[7] = system: patient with head injury and seizures; experiment: Example 14: 1 g of 1.6% CBD cream nuchal twice a day, intractable complex partial seizures, EEG; assay type: in vivo, human
Protocol: They presented with seizures (intractable complex partial seizures with secondary generalization; episodes of encephalopathy for 24 hours thereafter). […] They had had 5 craniotomies, and previously had been treated with Dilantin, Carbatrol, Keppra, Lamictal, and Depakote. Their current medications were Vimpat and Onfi (clobazam).
The patient was treated with 1 g of 1.6% CBD cream to the nuchal (back of the neck) region twice a day. […] The patient remained on Vimpat, and their dose of Onfi was reduced by half.

[8] = system: patient with autism and generalized seizures; experiment: Example 15: 1 g of 2% CBD cream nuchal, autism and generalized seizures, EEG; assay type: in vivo, human
Protocol: In Example 15, a patient presented with autism and generalized seizures. They were uncontrolled on Lamictal, Depakote, Keppra, Zonegran, ethosuximide/Zarontin. When examined, they presented with seizures about every 2 weeks on Banzel, Onfi, and Topamax as antiepileptics. FIG. 7 is a baseline EEG taken at the initial examination, showing seizure focus, showing generalized slowing and disorganization with left frontal sharp waves and paroxysms of sharp waves and spikes.
The patient was treated with 1 g of 2% CBD cream to the nuchal (back of the neck). […] They continued therapy with the topical CBD cream to the nuchal region twice daily, and the Topamax was tapered off, resulting in added overall improved encephalopathy.

[9] = system: patient with stroke and focal seizures; experiment: Example 16: 1 g of 1.6% CBD cream nuchal, stroke and focal seizures, EEG; assay type: in vivo, human
Protocol: In Example 16, a patient presented with stroke and focal seizures. […]. FIG. 9 is a baseline EEG taken at the initial examination, showing left fronto-central seizure focus.
The patient was treated with 1 g of 1.6% CBD cream to the nuchal (back of the neck). […] They were able to return to work as a beterinarian and do surgery, which was unexpected as their Rehab MD had previously advised them that we would have to retire.

[10] = system: patients having a variety of conditions; experiment: Example 18: topical CBD cream compounded from crystalline powder (Table 7); assay type: in vivo, human; settings: 1% topical CBD; single patients
Protocol: The CBD was compounded in crystalline powder form rather than in CBD-oil form into the topical cream. The doses were 7.5 mg (0.75% topical CBD cream), 10 mg (1% topical CBD cream), 15 mg (1.5% topical CBD cream) or 20 mg (2% topical CBD cream).

[11] = system: acute paranoid schizophrenia; settings: cited from earlier work
[12] = cannabidiol 40 mg topical at BONATH
[13] = 15 mg or 30 mg cannabinoid drugs (CBD oil) topical, one patient per entry
[14] = after topical CBD, single patients
[15] = twice a day CBD treatment to the nuchal region

## C=C(C)[C@@H]1CCC(C)=C[C@H]1c1c(O)cc(CCCCC)cc1O [CBD, cannabidiol]
Human patients; 40 mg topical CBD on back of neck, single patients
  time after topical CBD at which the effect was seen: 10-15 minutes after nuchal and 15 minutes and within 15 minutes. and 10 minutes after topical CBD, and hand function within 15 minutes; and 20 minutes after 40 mg topical and 5 minutes after 40 mg topical and 5 minutes and 10-15 minutes after topical CBD,
Human patients; 40 mg, person in panic attack, before 7-8 of 10
  anxiety level after nuchal topical CBD: anxiety from 7-8 of 10 to 4 of 10
Human patients; one dose of 40 mg topical CBD, Parkinson's patient with 10-12 freezing episodes per day
  time without freezing episodes after one dose: over 24 hours; also more
[1]; [12]
  EEG after nuchal administration: attenuation of the right temporal waves to a more normal state
  duration of EEG improvement and clinical benefit: The EEG improvement lasted several minutes, but the clinical benefit lasted several hours
  neuralgic head pain less severe: about 50%
[1]; cannabidiol 40 mg topical, before every 15-20 seconds
  frequency of neuralgic head pain after treatment (every ...): 2 to 5 min
[2]
  EEG post-treatment: the right fast activity and sharp waves were attenuated
[3]; 15 mg or 30 mg, back of neck, single patients
  time after topical CBD at which the effect was seen: 15 minutes after application of topical CBD and 10 minutes after topical CBD to back of and state within 10 minutes. and ≤ 15 minutes and 3 minutes after topical CBD application, and 30 minutes after topical CBD to back of
[3]; after 2 months use, person with Aicardi syndrome, intractable seizures
  seizure frequency reduced: reduced 60%. Prior doses of Lamicatal and
[3]; after one application/treatment of topical CBD to back of neck, single patients
  spasticity decrease/improvement: 80% and Severe baseline spasticity improved 70% and spasticity by 30% from baseline. and 30% reduction in spasticity in all 4
[3]; person s/p head injury, topical CBD to back of neck
  duration of effect: lasted 8 hours. Now on 3×/day.
[4]; [13]
  result after topical CBD, in words (Table 3): improved mobility and After week of daily use, headache free and calm, less anxious, and breathing easier. and Headache and neck pain resolved and Chronic daily headaches resolved after daily and Neck pain resolved and 2×/day with benefit for past 2 months. Injury and the neck, pain resolve and ROM improved and chronic headache and improved range and Pain resolved after several and All pain symptoms resolved after 3 weeks of
[4]; Bell's palsy, CBD to back of neck and region of stylomastoid foramen
  right facial weakness and decreased sensation improved: 30%
[4]; [14]
  pain (headache, neck, TMJ, back, thoracic) reduction: 50% and diminished 50% for the first time. Prescribed and Chronic back pain improved 30% and Thoracic pain reduced 30% within and Headaches and neck pain improved 30% with
[4]; person, 5 minutes after topical CBD to the neck
  ROM of neck improved: 80%. Will continue to use daily.
[4]; single patients
  time after topical CBD at which the effect was seen: 5 minutes after topical CBD to back of neck, and 5-10 minutes and 5 minutes after topical CBD application to and ≤ 15 minutes and within 15 minutes after topical CBD and ≤ 10 minutes of topical CBD
[5]; [13]
  result after topical CBD, in words (Table 4): Right hand symptoms improved after topical; also recorded: improved strength; also recorded: relief better than Tramadol; also recorded: improved mobility and back pain relief; also recorded: back of neck and back 3×/day; pain relief
[5]; [14]
  pain reduction/relief: pain diminished 40% with improved and 30-40% and 30% (2×) and 50% and 60% reduction in chronic pain within a few
[5]; person, before 6 of 10, after 10 minutes
  left lower extremity pain after topical CBD: 2 /10
[5]; single patients
  time after topical CBD at which the effect was seen: 5 minutes (2×) and 10 minutes and within 10 minutes. and Within 15 minutes of topical CBD application and ≤ 15 minutes and ≤ 10 minutes and within 2 minutes of application.
[6]; 15 mg or 30 mg cannabinoid drugs (CBD oil) at back of neck, one patient per entry
  result after topical CBD, in words (Table 5): resolved festination/small steppage; also recorded: Facial twitching improved after
[6]; single patients
  time after topical CBD at which the effect was seen: 15 minutes after one application and 10 minutes and 10 minutes after topical CBD appli- and 5 minutes; now using 3×/ day.
[7]; 16 mg nuchal topical CBD twice daily with Vimpat and Onfi, one year follow-up and 20 months
  seizure status on treatment: the patient was seizure-free; also recorded: remained seizure-free since June 2014
[7]; one year follow-up (FIG. 6)
  follow-up EEG post-treatment: right fast activity and sharp waves attenuated; also recorded: no longer showing seizure potential
[8]; 2% CBD cream nuchal, continued twice daily
  clinical result: more alert and interactive; also recorded: Seizure frequency also was reduced
[8]; within one minute of application of 1 g of 2% CBD cream (FIG. 8)
  EEG after CBD application: improvement in the EEG background without previous burst activity; also recorded: right fast activity and sharp waves attenuated
[9]; 10 minutes after application of 1 g of 1.6% CBD cream (FIG. 10)
  EEG after CBD dose: attenuated seizure focus
[9]; [15]
  clinical result: remains seizure free; also recorded: helping their spastic weakness from the stroke
  time seizure free after initiation of treatment: about 9 months
[10]
  pain decrease: 50%
[11]; after 2 weeks
  psychotic symptoms: significant decrease in psychotic symptoms
[11]; compared with amisulpride
  side effects: significantly fewer side effects
